Experimental data taken from the supplement of paper PMC11061612.

Columns and labels:
Capivasertib = compound: C1CN(CCC1(C(=O)N[C@@H](CCO)C2=CC=C(C=C2)Cl)N)C3=NC=NC4=C3C=CN4 [Capivasertib]; conditions: max 10 µM
Method in brief: (§1)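 Cancer cell lines were plated in 1536-well plates in 7.5 μl of DMEM/F12 or RPMI with 10% FBS and kept 24 hours at 37°C and 5% CO2 before 72 hours of dosing, with final DMSO typically 0.2%. CellTiter-Glo 2.0 luminescence measured viability, scaled between blank-well and DMSO-well means. Dose responses were fitted to a two-parameter logistic curve with a non-linear mixed effects model. This fit gives the single-agent IC50.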

AZD1775 = compound: C=CCn1c(=O)c2cnc(Nc3ccc(N4CCN(C)CC4)cc3)nc2n1-c1cccc(C(C)(C)O)n1 [AZD1775]; conditions: max 3 µM
Method in brief: as §1

Trametinib = compound: CC(=O)Nc1cccc(-n2c(=O)n(C3CC3)c(=O)c3c(Nc4ccc(I)cc4F)n(C)c(=O)c(C)c32)c1 [Trametinib]; conditions: max 1 µM
Method in brief: as §1

Palbociclib = compound: CC(=O)c1c(C)c2cnc(Nc3ccc(N4CCNCC4)cn3)nc2n(C2CCCC2)c1=O [Palbociclib]; conditions: max 10 µM
Method in brief: as §1

AZD1390 = compound: CC(C)n1c(=O)n(C)c2cnc3cc(F)c(-c4ccc(OCCCN5CCCCC5)nc4)cc3c21 [AZD1390]; conditions: max 0.3 µM
Method in brief: as §1

Venetoclax = compound: CC1(C)CCC(CN2CCN(c3ccc(C(=O)NS(=O)(=O)c4ccc(NCC5CCOCC5)c([N+](=O)[O-])c4)c(Oc4cnc5[nH]ccc5c4)c3)CC2)=C(c2ccc(Cl)cc2)C1 [Venetoclax]; conditions: max 1 µM
Method in brief: as §1

Dasatinib = compound: CC1=C(C(=CC=C1)Cl)NC(=O)C2=CN=C(S2)NC3=CC(=NC(=N3)C)N4CCN(CC4)CCO [Dasatinib]; conditions: max 2 µM
Method in brief: as §1

SG3199 = compound: CC1=CN2[C@@H](C1)C=NC3=CC(=C(C=C3C2=O)OC)OCCCCCOC4=C(C=C5C(=C4)N=C[C@@H]6CC(=CN6C5=O)C)OC [SG3199]; conditions: max 0.001 µM
Method in brief: as §1

AZD2811 = compound: CCN(CCO)CCCOc1ccc2c(Nc3cc(CC(=O)Nc4cccc(F)c4)[nH]n3)ncnc2c1 [AZD2811]; conditions: max 1 µM
Method in brief: as §1

SN-38 = compound: CCc1c2c(nc3ccc(O)cc13)-c1cc3c(c(=O)n1C2)COC(=O)[C@]3(O)CC [SN-38]; conditions: max 0.3 µM
Method in brief: as §1

AZD0156 = compound: CN(C)CCCOc1ccc(-c2ccc3ncc4c(c3c2)n(C2CCOCC2)c(=O)n4C)cn1 [AZD0156]; conditions: max 3 µM
Method in brief: as §1

AZD4320 = compound: CN(CC[C@H](CSC1=CC=CC=C1)NC2=C(C=C(C=C2)S(=O)(=O)NC(=O)C3=CC=C(C=C3)N4CCC(CC4)[C@H](C5=CC=CC=C5C6=CC=C(C=C6)Cl)O)S(=O)(=O)C(F)(F)F)CCO [AZD4320]; conditions: max 1 µM
Method in brief: as §1

Alisertib = compound: COc1cc(Nc2ncc3c(n2)-c2ccc(Cl)cc2C(c2c(F)cccc2OC)=NC3)ccc1C(=O)O [Alisertib]; conditions: max 10 µM
Method in brief: as §1

Gefitinib = compound: COc1cc2ncnc(Nc3ccc(F)c(Cl)c3)c2cc1OCCCN1CCOCC1 [Gefitinib]; conditions: max 10 µM
Method in brief: as §1

Prexasertib = compound: COc1cccc(OCCCN)c1-c1cc(Nc2cnc(C#N)cn2)n[nH]1 [Prexasertib]; conditions: max 1 µM
Method in brief: as §1

Doxorubicin = compound: COc1cccc2c1C(=O)c1c(O)c3c(c(O)c1C2=O)C[C@@](O)(C(=O)CO)C[C@@H]3O[C@H]1C[C@H](N)[C@H](O)[C@H](C)O1 [Doxorubicin]; conditions: max 1 µM
Method in brief: as §1

AZD5153 = compound: COc1nnc2ccc(N3CCC(c4ccc(OCCN5CCN(C)C(=O)[C@H]5C)cc4)CC3)nn12 [AZD5153]; conditions: max 1 µM
Method in brief: as §1

Lapatinib = compound: CS(=O)(=O)CCNCc1ccc(-c2ccc3ncnc(Nc4ccc(OCc5cccc(F)c5)c(Cl)c4)c3c2)o1 [Lapatinib]; conditions: max 10 µM
Method in brief: as §1

AZD8186 = compound: C[C@@H](Nc1cc(F)cc(F)c1)c1cc(C(=O)N(C)C)cc2c(=O)cc(N3CCOCC3)oc12 [AZD8186]; conditions: max 3 µM
Method in brief: as §1

Crizotinib = compound: C[C@@H](Oc1cc(-c2cnn(C3CCNCC3)c2)cnc1N)c1c(Cl)ccc(F)c1Cl [Crizotinib]; conditions: max 10 µM
Method in brief: as §1

Savolitinib = compound: C[C@@H](c1ccc2nccn2c1)n1nnc2ncc(-c3cnn(C)c3)nc21 [Savolitinib]; conditions: max 1 µM
Method in brief: as §1

AZD6738 = compound: C[C@@H]1COCCN1C2=NC(=NC(=C2)C3(CC3)[S@](=N)(=O)C)C4=C5C=CNC5=NC=C4 [AZD6738]; conditions: max 10 µM
Method in brief: as §1

AZD5991 = compound: Cc1c2c(nn1C)CSCc1cc(n(C)n1)CSc1cc(c3ccccc3c1)OCCCc1c(C(=O)O)n(C)c3c-2c(Cl)ccc13 [AZD5991]; conditions: max 1 µM
Method in brief: as §1

AZD7648 = compound: Cc1cc2ncnn2cc1Nc1ncc2c(n1)n(C1CCOCC1)c(=O)n2C [AZD7648]; conditions: max 10 µM
Method in brief: as §1

Taselisib = compound: Cc1nc(-c2cn3c(n2)-c2ccc(-c4cnn(C(C)(C)C(N)=O)c4)cc2OCC3)n(C(C)C)n1 [Taselisib]; conditions: max 10 µM
Method in brief: as §1

Selumetinib = compound: Cn1cnc2c(F)c(Nc3ccc(Br)cc3Cl)c(C(=O)NOCCO)cc21 [Selumetinib]; conditions: max 10 µM
Method in brief: as §1

Olaparib = compound: O=C(c1cc(Cc2n[nH]c(=O)c3ccccc23)ccc1F)N1CCN(C(=O)C2CC2)CC1 [Olaparib]; conditions: max 10 µM
Method in brief: as §1

Cell Line: A704 (Kidney Carcinoma)
- IC50, cell viability 72 h (Capivasertib): > 10 µM
- IC50, cell viability 72 h (AZD1775): 2.51 µM
- IC50, cell viability 72 h (Trametinib): > 1 µM
- IC50, cell viability 72 h (Palbociclib): > 10 µM
- IC50, cell viability 72 h (AZD1390): > 0.3 µM
- IC50, cell viability 72 h (Venetoclax): > 1 µM
- IC50, cell viability 72 h (Dasatinib): 0.11 µM
- IC50, cell viability 72 h (SG3199): > 0.001 µM
- IC50, cell viability 72 h (AZD2811): > 1 µM
- IC50, cell viability 72 h (SN-38): 0.274 µM
- IC50, cell viability 72 h (AZD0156): > 3 µM
- IC50, cell viability 72 h (AZD4320): > 1 µM
- IC50, cell viability 72 h (Alisertib): 5.35 µM
- IC50, cell viability 72 h (Gefitinib): > 10 µM
- IC50, cell viability 72 h (Prexasertib): > 1 µM
- IC50, cell viability 72 h (Doxorubicin): > 1 µM
- IC50, cell viability 72 h (AZD5153): 0.538 µM
- IC50, cell viability 72 h (Lapatinib): 8.79 µM
- IC50, cell viability 72 h (AZD8186): 1.54 µM
- IC50, cell viability 72 h (Crizotinib): > 10 µM
- IC50, cell viability 72 h (Savolitinib): > 1 µM
- IC50, cell viability 72 h (AZD6738): > 10 µM
- IC50, cell viability 72 h (AZD5991): > 1 µM
- IC50, cell viability 72 h (AZD7648): > 10 µM
- IC50, cell viability 72 h (Taselisib): > 10 µM
- IC50, cell viability 72 h (Selumetinib): > 10 µM
- IC50, cell viability 72 h (Olaparib): > 10 µM

Cell Line: BT-20 (Breast Carcinoma)
- IC50, cell viability 72 h (Capivasertib): 1.21 µM
- IC50, cell viability 72 h (AZD1775): 1.44 µM
- IC50, cell viability 72 h (Trametinib): 0.202 µM
- IC50, cell viability 72 h (Palbociclib): > 10 µM
- IC50, cell viability 72 h (AZD1390): > 0.3 µM
- IC50, cell viability 72 h (Venetoclax): > 1 µM
- IC50, cell viability 72 h (Dasatinib): > 2 µM
- IC50, cell viability 72 h (SG3199): > 0.001 µM
- IC50, cell viability 72 h (AZD2811): > 1 µM
- IC50, cell viability 72 h (SN-38): 0.0577 µM
- IC50, cell viability 72 h (AZD0156): > 3 µM
- IC50, cell viability 72 h (AZD4320): > 1 µM
- IC50, cell viability 72 h (Alisertib): 9.86 µM
- IC50, cell viability 72 h (Gefitinib): > 10 µM
- IC50, cell viability 72 h (Prexasertib): 0.319 µM
- IC50, cell viability 72 h (Doxorubicin): > 1 µM
- IC50, cell viability 72 h (AZD5153): > 1 µM
- IC50, cell viability 72 h (Lapatinib): > 10 µM
- IC50, cell viability 72 h (AZD8186): > 3 µM
- IC50, cell viability 72 h (Crizotinib): > 10 µM
- IC50, cell viability 72 h (Savolitinib): > 1 µM
- IC50, cell viability 72 h (AZD6738): > 10 µM
- IC50, cell viability 72 h (AZD5991): > 1 µM
- IC50, cell viability 72 h (AZD7648): > 10 µM
- IC50, cell viability 72 h (Taselisib): 0.297 µM
- IC50, cell viability 72 h (Selumetinib): > 10 µM
- IC50, cell viability 72 h (Olaparib): > 10 µM
